According to PMC5678437, “A new antagonist for CCR4 attenuates allergic lung inflammation in a mouse model of asthma” (Scientific Reports, 2017):

What was measured:
[1] = target: T1, CXCR3 (Homo sapiens, UniProt P49682); test: Chemotaxis inhibition assay for receptor specificity, HEK293-CXCR3; type: cell-based; details: 0.2, 1, 5, 25 μM, 30 min pretreatment
T1 construct: expressed in transfected cells; host or cells: HEK293; plasmid from Chinese National Human Genome Center
T1 sequence (P49682 1-415 isoform P49682-2): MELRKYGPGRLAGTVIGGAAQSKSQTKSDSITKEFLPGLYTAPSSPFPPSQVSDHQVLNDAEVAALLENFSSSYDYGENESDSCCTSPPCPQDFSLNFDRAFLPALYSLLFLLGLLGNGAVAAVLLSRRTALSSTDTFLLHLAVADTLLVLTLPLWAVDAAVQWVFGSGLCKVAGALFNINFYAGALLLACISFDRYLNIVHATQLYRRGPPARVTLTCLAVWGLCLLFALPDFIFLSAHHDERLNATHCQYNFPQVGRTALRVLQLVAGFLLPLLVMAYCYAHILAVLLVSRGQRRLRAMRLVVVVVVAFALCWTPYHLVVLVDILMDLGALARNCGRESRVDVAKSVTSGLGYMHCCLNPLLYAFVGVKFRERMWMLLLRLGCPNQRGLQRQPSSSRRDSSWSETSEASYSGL
Method: (§1) HEK293 cells were transfected with different chemokine receptors. The corresponding chemokines of different receptors were placed in the lower chambers. The transfected cells were pretreated with different concentrations of Compound 8a or 1‰ DMSO for 30 min at a density of 1 × 10^6 cells/ml and added to the upper chambers, the final concentration of the compound is: 0.2 μM, 1 μM, 5 μM, and 25 μM, respectively.

[2] = target: T2, CXCR1 (Homo sapiens, UniProt P25024); test: Chemotaxis inhibition assay for receptor specificity, HEK293-CXCR1; type: cell-based; details: 0.2, 1, 5, 25 μM, 30 min pretreatment
T2 construct: expressed in transfected cells; host or cells: HEK293; plasmid gift of Dr. Philip M. Murphy (NIAID, NIH)
T2 sequence (P25024 1-350): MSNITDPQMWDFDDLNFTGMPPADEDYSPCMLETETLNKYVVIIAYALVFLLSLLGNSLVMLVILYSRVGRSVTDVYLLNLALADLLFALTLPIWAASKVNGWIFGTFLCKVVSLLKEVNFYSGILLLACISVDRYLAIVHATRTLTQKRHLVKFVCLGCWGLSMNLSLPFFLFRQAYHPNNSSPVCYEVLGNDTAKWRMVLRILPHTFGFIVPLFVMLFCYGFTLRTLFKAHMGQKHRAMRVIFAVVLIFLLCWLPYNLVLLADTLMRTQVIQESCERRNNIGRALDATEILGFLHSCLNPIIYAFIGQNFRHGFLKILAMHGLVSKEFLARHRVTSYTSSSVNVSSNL
Method: as §1

[3] = target: T3, CXCR4 (Homo sapiens, UniProt P61073); test: Chemotaxis inhibition assay for receptor specificity, HEK293-CXCR4; type: cell-based; details: 0.2, 1, 5, 25 μM, 30 min pretreatment
T3 construct: expressed in transfected cells; host or cells: HEK293; plasmid from Chinese National Human Genome Center
T3 sequence (P61073 1-356 isoform P61073-2): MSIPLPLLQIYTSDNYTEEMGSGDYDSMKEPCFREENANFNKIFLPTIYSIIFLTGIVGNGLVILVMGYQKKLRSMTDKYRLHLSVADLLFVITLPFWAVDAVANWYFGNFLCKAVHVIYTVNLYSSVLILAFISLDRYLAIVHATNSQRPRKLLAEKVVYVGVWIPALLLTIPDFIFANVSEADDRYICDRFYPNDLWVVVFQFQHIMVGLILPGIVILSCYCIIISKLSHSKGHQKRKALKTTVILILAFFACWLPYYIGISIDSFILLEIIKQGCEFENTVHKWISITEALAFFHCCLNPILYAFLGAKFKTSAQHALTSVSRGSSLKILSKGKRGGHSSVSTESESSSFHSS
Method: as §1

[4] = system: IL-4; test: IL-4 in lung homogenate by ELISA in OVA-induced asthmatic mice; type: in vivo, BALB/c mice; details: 5 mg inhaled aerosol; after OVA challenge
Method: (§2) Male BALB/c 6 week old mice were purchased from the Experimental Animal Center of Zhejiang University. All mice were raised in a specific pathogen-free animal facility. All animal experiments were carried out according to the guidelines for the care and use of laboratory animals and were approved by the ethics committee of Zhejiang University and Peking University, China.
(§3) Mice were sensitized and challenged with chicken egg OVA (sigma-Aldrich, St Louis, MO, USA) as described in details previously. Briefly, after sensitized by intraperitoneal injection of 100 μl (80 μg) OVA in 100 μl alum (Pierce, Rockford, IL, USA) on days 0 and 14, mice were exposure to 1% OVA aerosols for 40 min on days 24–26. Control mice were injected intraperitoneally with saline and exposed to saline aerosols.
(§4) Compound 8a was dissolved in saline with DMSO (0.5%). Half an hour before each OVA challenge, the groups of mice treated with various doses of compound 8a (0.2, 1, 5 mg) inhaled aerosolized compound 8a for 45 min on days 24–26. […]
Twenty-four hours after the last challenge, lungs were removed from control or asthmatic mice, and they were cut into pieces and homogenized in 500 μl PBS, centrifuged (2000 rpm, 10 min) and the supernatant collected. The concentration of IL-4 in lungs were determined by ELISA kit (Sensitivity: 2 pg/ml, R&D Systems, Minneap-olis, MN, USA) following the manufacturer’s protocol.

[5] = target: T1, CXCR3; test: Chemotaxis assay for receptor specificity, HEK293-CXCR3; type: cell-based; details: compound as chemoattractant in lower chamber, 0.2, 1, 5, 25 μM
Method: (§5) HEK293 cells were transfected with different chemokine receptors. Compound 8a with DMSO was diluted to 0.2 mM, 1 mM, 5 mM and 25 mM, and then we used RPMI 1640 medium containing 0.1% BSA for dilution. The final concentration is: 0.2 μM, 1 μM, 5 μM and 25 μM. DMSO was also diluted 1000-fold with 0.1% BSA RPMI 1640 medium. Chemokines was also diluted to an appropriate concentration. The dilutions of Compound 8a, 1‰ DMSO, the corresponding chemokines of different receptors and 0.1% BSA RPMI 1640 medium were placed in the lower chambers (27.5 μl/well). The transfected HEK293 cells were resuspended in the same medium at a density of 1 × 10^6 cells/ml and added to the upper chambers (55 μl/well).

[6] = system: OVA-induced asthmatic mice; test: Lung histology (H&E) inflammation score in OVA-induced asthmatic mice; type: in vivo, BALB/c mice; details: 5 mg inhaled aerosol; vs OVA mice treated with vehicle
Method: as §2, §3
as §4, with “24–26. Compound 8a aerosols were produced by using a Plexiglas chamber and ultrasonic nebulizer.” for “24–26.”
After sacrificed, the lungs were fixed in formalin overnight. […] Inflammation was scored according to published guidelines. And PAS-stained goblet cells in airway epithelium were quantified as described previously.

[7] = target: T4, CCR2B (Homo sapiens, UniProt P41597); test: Chemotaxis assay for receptor specificity, HEK293-CCR2B; type: cell-based; details: compound as chemoattractant in lower chamber, 0.2, 1, 5, 25 μM
T4 construct: expressed in transfected cells; host or cells: HEK293, pcDB-CCR2B plasmid made in the authors' laboratory
T4 sequence (P41597 1-360 isoform P41597-2): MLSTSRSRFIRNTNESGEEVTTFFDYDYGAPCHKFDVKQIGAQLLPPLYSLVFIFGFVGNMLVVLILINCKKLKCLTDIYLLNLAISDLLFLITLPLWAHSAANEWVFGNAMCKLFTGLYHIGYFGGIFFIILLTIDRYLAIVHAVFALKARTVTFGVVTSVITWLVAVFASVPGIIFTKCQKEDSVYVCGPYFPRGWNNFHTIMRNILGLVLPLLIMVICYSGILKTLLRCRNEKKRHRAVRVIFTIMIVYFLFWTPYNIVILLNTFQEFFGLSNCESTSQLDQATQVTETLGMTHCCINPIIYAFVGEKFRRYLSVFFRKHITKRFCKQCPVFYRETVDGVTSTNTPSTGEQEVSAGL
Method: as §5

O=C(C1CCCCN1)N1CCN(c2nc(Cl)cc(NCc3ccc(Cl)cc3Cl)n2)CC1 (stereo not shown) [compound 8a, {4-[4-Chloro-6-(2,4-dichloro-benzylamino)-pyrimidin-2-yl]-piperazin-1-yl}-piperidin-2-yl-methanone]
inhibition of chemotaxis of HEK293-CXCR3 to its ligand [1]: few influence
inhibition of chemotaxis of HEK293-CXCR1 to its ligand [2]: few influence
inhibition of chemotaxis of HEK293-CXCR4 to its ligand [3]: few influence
expression of IL-4 in lungs (ELISA) [4]: notably decreased
chemotaxis effect of the compound on HEK293-CXCR3 [5]: didn’t exert chemotaxis effects
peribronchial and perivascular inflammation (H&E histology) [6]: comparable inhibitory effect
chemotaxis effect of the compound on HEK293-CCR2B [7]: didn’t exert chemotaxis effects
